Laboratory results as given in US20220323761A1, “METHOD FOR INDUCING HIBERNATION-LIKE STATE AND DEVICE SAME” (University of Tsukuba, priority 2019, published 2022).

Columns and labels:
Format in all cases: in vivo
hM3Dq in Q-neurons = target: T1, hM3Dq in Q-neurons (Homo sapiens, UniProt P20309, A239G/Y149C); test: Estimation of thermoregulatory parameters G, H and TR during CNO-induced QIH in Q-hM3D mice
T1 construct: mCherry (C); expressed in transfected cells; host or cells: QRFP-producing (Q) neurons of Qrfp-iCre mice transduced in vivo with AAV10-EF1α-DIO-hM3Dq-mCherry
Text: In order to record the core body temperature, oxygen consumption amount, EEG, ECG, and respiratory patterns, each animal was housed in a temperature controlled chamber (HC-100, Shin Factory or LP-400P-AR, Nippon Medical & Chemical Instruments Co., Ltd.). In order to continuously record the TB (intraperitoneal temperature), a telemetry temperature sensor (TA11TA-F10, DSI) was implanted into the animal's abdominal cavity under general inhalation anesthesia at least 7 days prior to the recording. The VO 2 and carbon dioxide discharge rate (VCO2) of the animal were continuously recorded using a respiratory gas analyzer (ARCO-2000 mass spectrometer, ARCO System). The respiratory quotient was calculated from the ratio of VCO2/VO2.
(§1) The Dreadd agonist CNO (clozapine N-oxide, Abcam, ab141704) was dissolved in physiological saline at a dose of 100 μg/mL, and the solution was frozen at −20° C. The CNO solution was thawed on site and then administered to each mouse intraperitoneally at a dose of 1 mg/kg. The adenosineAl receptor agonist CHA (N^6-cyclohexyl adenosine, Sigma-Aldrich, C9901) was dissolved in physiological saline at a concentration of 250 μg/mL, and the solution was administered intraperitoneally to each mouse at a dose of 2.5 mg/kg.
To evaluate the thermoregulatory system under QIH and normal conditions, the heat loss and heat production of the animals were described in a hierarchical multilayer model (FIG. 3c to FIG. 3k, code folder QIH_GTRH). Three parameters of G, TR and H under two metabolic conditions, that is, normal and QIH conditions, were estimated from a metabolically stable state of the animals at various TAs. The detailed method has been previously described^3. In summary, a linear model formed from the controllable parameter TA and the observable parameters TB and VO2 was fitted to the experimental results for both TB and VO2 using TA as a predictor having normal distribution noise. Next, G, TR, and H were estimated using the post-distribution of the slope and intercept coefficients for each model. […]

[1] = tested on: Q-neurons in the AVPe, MPA and Pe; test: Fos immunostaining of brain sections of Q-hM3D mice after CNO IP; details: 90 minutes after CNO IP
Description: Each mouse was deeply anesthetized with isoflurane, transcardially perfused with 10% sucrose in water, and then perfused with ice-cooled 4% paraformaldehyde (4% PFA) in a 0.1 M phosphate buffer having a pH of 7.4, and the brain was removed. After being left in the 4% PFA overnight at 4° C., the brain was fixed, incubated overnight at 4° C. in a 0.1 M phosphate buffered saline (PBS) having a pH of 7.4, in 30% sucrose, immersed in a Tissuue-Tek O.C.T. compound (Sakura) in a cryomold, and frozen at −80° C. until sectioned. With the use of a cryostat (CM1860, Leica), the brain was sliced into coronal sections in four equal series every 50 μm, collected in a 6-well plate filled with ice-cooled PBS, and washed three times with PBS at room temperature (RT). Unless otherwise specified, the following incubation process was carried out while gently shaking on an orbital shaker. […]
The primary antibodies used in this research were rabbit anti-cFos (1:4000, ABE457, Millipore), goat anti-mCherry (1:15000, AB0040-200, SICGEN), rat anti-GFP (1:5000, 04404-84, NACALAI TESQUE), mouse anti-TH (1:1000, sc-25269, Santa Cruz Biotechnology), mouse anti-orexin A (1:200, sc-80263, Santa Cruz Biotechnology), and rabbit anti-MCH (1:2000, M8440, SIGMA). […] Brain regions were determined using a mouse brain map from Paxinos and Franklin^36.

[2] = target: T2, hM3Dq in iCre-positive neurons (Homo sapiens, UniProt P20309, A239G/Y149C); test: Infrared thermography and behaviour of Qrfp-iCre; Rosa26^dreaddm3 mice after IP CNO
T2 construct: mCherry (C); expressed in transfected cells; host or cells: iCre-expressing neurons of Qrfp-iCre; Rosa26^dreaddm3 mice (CAG-hM3Dq-mCherry at the Rosa26 locus, in vivo)
Text: For thermographic analysis, the mice were inserted into an experiment cage (25×15×10 cm) and monitored using an infrared thermal imaging camera (InfReC R500 EX; Nippon Avionics) placed 30 cm above the cage floor. To clearly detect the surface temperature, the back hair was removed using hair clippers one day prior to the start of the experiment. Thermograms of DREADD and optogenetic experiments were collected at 0.5 Hz and 1 Hz, respectively, and analyzed using the InfReC Analyzer NS9500 Professional software (Nippon Avionics). The highest temperature of one frame was used as the TS of the animal (FIG. 1d).
as §1

T1 sequence (P20309 whole entry Y149C/A239G, the tested form may be a part): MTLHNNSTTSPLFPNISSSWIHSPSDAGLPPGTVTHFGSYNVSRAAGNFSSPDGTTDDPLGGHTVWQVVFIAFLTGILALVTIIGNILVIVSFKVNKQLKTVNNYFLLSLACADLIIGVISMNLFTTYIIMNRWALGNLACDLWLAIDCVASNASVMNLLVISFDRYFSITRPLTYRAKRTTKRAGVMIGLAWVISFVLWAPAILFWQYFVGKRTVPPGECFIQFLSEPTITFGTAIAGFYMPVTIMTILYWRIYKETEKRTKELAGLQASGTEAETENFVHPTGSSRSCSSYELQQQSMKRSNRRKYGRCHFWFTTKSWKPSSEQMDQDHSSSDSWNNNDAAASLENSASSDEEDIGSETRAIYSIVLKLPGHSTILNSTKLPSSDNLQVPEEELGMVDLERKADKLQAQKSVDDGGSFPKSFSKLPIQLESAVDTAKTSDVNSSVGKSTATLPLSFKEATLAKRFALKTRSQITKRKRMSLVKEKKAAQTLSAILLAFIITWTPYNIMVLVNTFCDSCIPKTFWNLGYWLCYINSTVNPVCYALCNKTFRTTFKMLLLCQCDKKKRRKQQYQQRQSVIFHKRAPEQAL
T2 sequence (P20309 whole entry Y149C/A239G): as the sequence (P20309 whole entry Y149C/A239G, the tested form may be a part) above

C[N+]1([O-])CCN(C2=Nc3cc(Cl)ccc3Nc3ccccc32)CC1 [CNO, clozapine N-oxide]
reduction in H at each median (hM3Dq in Q-neurons; QIH versus normal state): 95.3%
TB and VO2 versus control at every TA (hM3Dq in Q-neurons; eleven hours after IP injection, TA 8-32° C.): low TB and VO2
difference in TR at each median (hM3Dq in Q-neurons; normal versus QIH): 8.41 °C
in vivo excitation of neurons (mCherry and Fos double positive) [1]: confirmed
duration of TS reduction [2]: approximately 12 hours
onset of TS reduction after administration [2]: approximately 5 minutes
onset of sustained immobility after injection ([2]; intraperitoneal CNO): approximately 30 minutes
surface body temperature (TS) effect ([2]; thermography camera): significantly sustained hypothermia
